# Reference: patent publication EP2266963A1, “Fluorogenic peptidase substrate” (ECOLE NORMALE SUPERIEURE DE LYON, priority 2009, dated 2010)
# Tests used:
# leucyl aminopeptidase [1] = test: Fluorogenic test for leucyl aminopeptidase activity in Tris-HCl buffer; type: biochemical; details: Figure 2 curve a; substrate with enzyme; TRIS-HCl buffer 25 mM pH 7.4; 38 µM substrate; 0.02 U mL^-1 enzyme; 25 °C; λexc 365 nm, λem 495 nm
# Description: Column chromatography was performed using silicagel Si 60 (40-63 µm). ^1H and ^13C NMR spectra were recorded at 200.13 MHz, 50.13 MHz, respectively. Chemical shifts (δ) are reported in ppm (s = singlet, d= doublet, t = triplet, m = multiplet, br = broad) and quoted with reference to tetramethyl silane or from solvent signals. NMR coupling constants (J) are reported in Hertz. Fluorescence assays were carried out in black roundbottom polypropylene 96-well-plates (NUNCLONE, Nunc Inc.) and recorded on a microplate spectrofluorimeter (Gemini XPS by Molecular Devices).
# Scheme 3 presents the reaction cascade initiated by cleavage of the substrate 1 or 2 by a target peptidase. [drawing 5] • Figure 1 (ordinate in arbitrary fluorescence units a.u.) represents the emission spectra (λexc = 365 nm) of substrate 2 (20 µM) before (curve a) and after incubation with leucyl aminopeptidase for 1 h (curve b) at 25 °C in Tris-HCl buffer. The experiment was monitored with a standard multi-well plate fluorescence spectrophotometer (Spectramax Gemini by Molecular Devices). • Figure 2 presents a fluorogenic test (λexc = 365 nm, λem = 495 nm) at 25 °C for the activity of leucyl aminopeptidase in Tris-HCl (25 mM, pH 7.4) using 38 µM of substrate 1 or 2 , and 0.02 U mL^-1 of leucyl aminopeptidase. […]
# leucyl aminopeptidase [2] = test: Time-dependent fluorescence signal evolution with pure enzyme in LB medium, with or without inhibitor; type: biochemical; details: 37°C
# Description: Scheme 3 presents the reaction cascade initiated by cleavage of the substrate 1 or 2 by a target peptidase. [drawing 5] • Figure 1 (ordinate in arbitrary fluorescence units a.u.) represents the emission spectra (λexc = 365 nm) of substrate 2 (20 µM) before (curve a) and after incubation with leucyl aminopeptidase for 1 h (curve b) at 25 °C in Tris-HCl buffer. The experiment was monitored with a standard multi-well plate fluorescence spectrophotometer (Spectramax Gemini by Molecular Devices). • Figure 2 presents a fluorogenic test (λexc = 365 nm, λem = 495 nm) at 25 °C for the activity of leucyl aminopeptidase in Tris-HCl (25 mM, pH 7.4) using 38 µM of substrate 1 or 2 , and 0.02 U mL^-1 of leucyl aminopeptidase. The following curves for time-dependent fluorescence signal evolution were obtained : (a) substrate 2 with enzyme, (b) substrate 1 with enzyme (c) substrate 2 without enzyme but with added bovine serum albumin (0.1 mg mL^-1), (d) substrate 1 without enzyme but with added bovine serum albumin (0.1 mg mL^-1). • Figure 3 presents the time-dependent signal evolution obtained with pure enzyme in complex LB (Lysogeny broth) medium (from Fisher, "LB Broth Lennox", ref 240230) rather than in pure buffer (TRIS-HCl).
# (§1) Substrate 2 concentration : 6 µM; enzyme : leucyle aminopeptidase (0.01 U); 37°C; LB medium; emission wavelength : 495 nm; Spectramax Gemini from Molecular Device.
# Figure 4 presents the time-dependent signal evolution obtained with pure enzyme in LB medium in the presence or absence of a standard aminopeptidase inhibitor (bestatine).
# Substrate 2 concentration : 6 µM; enzyme : leucyle aminopeptidase (0.01 U); inhibitor concentration : 10 nM; 37°C; LB medium; emission wavelength : 495 nm ;
# [3] = Spontaneous degradation of substrate in LB medium without enzyme or cells (background fluorescence signal); type: physicochemical; details: 37°C, emission 495 nm
# Description: as §1
# (§2) Substrate 2 concentration : 6 µM; bacterial cell line : DH5a (Invitrogen); 37°C; LB medium; emission wavelength : 495 nm. Substrate 2 is added during the exponential growth phase at an absorbance of 0.6 to 0.8.
# [4] = test system: bacterial cell line : DH5a; test: Incubation of substrate with bacterial cells at wild-type aminopeptidase level in LB medium; type: cell-based, E-Coli; details: Figure 5, 6 µM substrate added in exponential growth phase (absorbance 0.6 to 0.8), 37°C, emission 495 nm
# Description: as §2
Compound,time at which fluorescence signal reaches a plateau (leucyl aminopeptidase [1]) [h],"time at which fluorescence signal reaches a plateau (leucyl aminopeptidase [2]; Figure 3, LB+E+substrate 2, 6 µM substrate, enzyme 0.01 U, emission 495 nm)","time at which signal reaches the same level as the uninhibited reaction (leucyl aminopeptidase [2]; Figure 4, LB+E+I+substrate 2, inhibitor bestatine 10 nM, 6 µM substrate, enzyme 0.01 U) [h]","time at which fluorescence signal reaches a plateau (uninhibited reaction) (leucyl aminopeptidase [2]; Figure 4, LB+E+substrate 2, no inhibitor, 6 µM substrate, enzyme 0.01 U, emission 495 nm)","time at which signal plateaus in the absence of enzyme ([3]; Figure 3, LB+substrate 2, 6 µM substrate)","time at which signal reaches a plateau through slow degradation of the substrate ([3]; Figure 5, LB + substrate 2, no cells, 6 µM substrate) [h]",time at which signal reaches a plateau on incubation with cells [4] [h],"effect of inhibitor on signal evolution (leucyl aminopeptidase [2]; Figure 4, inhibitor 10 nM, 6 µM substrate 2, enzyme 0.01 U)"
CC(C)C[C@H](N)C(=O)NCCC(C)(C)C(=O)OCOc1ccccc1-c1nc2ccccc2c(=O)[nH]1 [substrate 2],0.5,approximately 1 hour,2.5,about 1.5 h,about 12 hours,10,2.5,–
"CC(C)C[C@H](NC(=O)[C@@H](O)[C@H](N)Cc1ccccc1)C(=O)O [inhibitor (I), bestatine, reference compound]",–,–,–,–,–,–,–,a delay in signal evolution can be detected
